These results are taken from patent US9340590B2 (priority 2011, dated 2016).

One assay addresses hNav1.5 (Homo sapiens, UniProt Q14524). The assay is described as follows: cell-based.
In another assay the target is hNav1.7 (Homo sapiens, UniProt Q15858). Kind of assay: cell-based.

pIC50: −log10 of the molar value. Where two headings read alike, the source gives them in different places. Positions of bridges follow the written chain, without caps; N, C: chain ends. Non-standard residues stand in square brackets, D forms with d. Residues, ends and D or L forms follow the SMILES beside them. 1Nal = N[C@@H](Cc1cccc2ccccc12)C(=O)O; 2Pal = N[C@@H](Cc1ccccn1)C(=O)O; 3Pal = N[C@@H](Cc1cccnc1)C(=O)O; Abu = CC[C@H](N)C(=O)O

Chain of hNav1.7 (Q15858 whole entry, looked up): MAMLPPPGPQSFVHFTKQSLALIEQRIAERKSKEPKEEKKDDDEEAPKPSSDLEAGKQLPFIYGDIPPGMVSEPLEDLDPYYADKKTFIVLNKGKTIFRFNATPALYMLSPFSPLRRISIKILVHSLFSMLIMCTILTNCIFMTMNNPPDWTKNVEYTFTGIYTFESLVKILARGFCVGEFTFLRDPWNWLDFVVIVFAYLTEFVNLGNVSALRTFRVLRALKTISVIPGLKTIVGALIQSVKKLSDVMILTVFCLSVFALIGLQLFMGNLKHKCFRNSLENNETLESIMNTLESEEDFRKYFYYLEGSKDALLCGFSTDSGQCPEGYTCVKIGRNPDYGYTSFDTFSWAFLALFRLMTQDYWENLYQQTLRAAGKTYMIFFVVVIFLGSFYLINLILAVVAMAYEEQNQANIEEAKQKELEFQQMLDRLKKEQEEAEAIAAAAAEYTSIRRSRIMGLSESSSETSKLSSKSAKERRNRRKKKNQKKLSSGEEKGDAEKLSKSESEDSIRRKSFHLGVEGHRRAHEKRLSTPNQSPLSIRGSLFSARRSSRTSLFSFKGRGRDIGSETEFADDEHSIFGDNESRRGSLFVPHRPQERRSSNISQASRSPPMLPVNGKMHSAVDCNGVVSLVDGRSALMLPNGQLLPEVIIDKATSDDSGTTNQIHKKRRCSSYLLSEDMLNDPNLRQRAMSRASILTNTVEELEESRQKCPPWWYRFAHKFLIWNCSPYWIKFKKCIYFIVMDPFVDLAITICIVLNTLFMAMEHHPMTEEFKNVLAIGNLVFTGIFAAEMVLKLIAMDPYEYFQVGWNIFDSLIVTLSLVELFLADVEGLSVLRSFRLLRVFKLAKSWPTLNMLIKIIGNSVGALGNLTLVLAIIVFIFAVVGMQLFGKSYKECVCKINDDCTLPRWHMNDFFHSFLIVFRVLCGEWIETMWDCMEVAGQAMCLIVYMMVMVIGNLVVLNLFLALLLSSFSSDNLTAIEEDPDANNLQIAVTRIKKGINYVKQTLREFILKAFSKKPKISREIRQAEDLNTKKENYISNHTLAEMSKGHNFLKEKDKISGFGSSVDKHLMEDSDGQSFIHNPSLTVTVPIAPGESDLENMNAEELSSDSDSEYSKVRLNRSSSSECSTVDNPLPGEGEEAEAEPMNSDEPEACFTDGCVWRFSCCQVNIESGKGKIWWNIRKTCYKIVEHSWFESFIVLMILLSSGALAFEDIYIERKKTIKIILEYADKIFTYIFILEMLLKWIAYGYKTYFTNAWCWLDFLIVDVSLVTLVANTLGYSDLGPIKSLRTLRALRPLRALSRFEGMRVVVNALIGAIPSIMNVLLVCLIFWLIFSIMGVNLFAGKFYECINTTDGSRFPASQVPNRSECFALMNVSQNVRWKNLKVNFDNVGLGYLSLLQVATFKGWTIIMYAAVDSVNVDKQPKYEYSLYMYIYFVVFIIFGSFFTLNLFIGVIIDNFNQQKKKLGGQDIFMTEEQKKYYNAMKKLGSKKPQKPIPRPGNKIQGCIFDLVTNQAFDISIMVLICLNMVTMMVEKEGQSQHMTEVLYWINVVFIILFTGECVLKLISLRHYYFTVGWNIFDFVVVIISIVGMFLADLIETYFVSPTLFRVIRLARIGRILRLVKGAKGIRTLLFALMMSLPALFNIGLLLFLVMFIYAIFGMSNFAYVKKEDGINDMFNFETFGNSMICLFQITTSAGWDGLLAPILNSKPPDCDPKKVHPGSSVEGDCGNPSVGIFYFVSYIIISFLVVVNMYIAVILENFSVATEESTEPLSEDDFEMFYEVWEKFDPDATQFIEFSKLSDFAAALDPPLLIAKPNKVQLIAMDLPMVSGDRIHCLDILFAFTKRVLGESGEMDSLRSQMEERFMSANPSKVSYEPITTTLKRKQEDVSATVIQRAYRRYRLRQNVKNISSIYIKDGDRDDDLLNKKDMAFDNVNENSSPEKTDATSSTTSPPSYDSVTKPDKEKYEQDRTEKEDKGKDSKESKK
Chain of hNav1.5 (Q14524 whole entry, looked up): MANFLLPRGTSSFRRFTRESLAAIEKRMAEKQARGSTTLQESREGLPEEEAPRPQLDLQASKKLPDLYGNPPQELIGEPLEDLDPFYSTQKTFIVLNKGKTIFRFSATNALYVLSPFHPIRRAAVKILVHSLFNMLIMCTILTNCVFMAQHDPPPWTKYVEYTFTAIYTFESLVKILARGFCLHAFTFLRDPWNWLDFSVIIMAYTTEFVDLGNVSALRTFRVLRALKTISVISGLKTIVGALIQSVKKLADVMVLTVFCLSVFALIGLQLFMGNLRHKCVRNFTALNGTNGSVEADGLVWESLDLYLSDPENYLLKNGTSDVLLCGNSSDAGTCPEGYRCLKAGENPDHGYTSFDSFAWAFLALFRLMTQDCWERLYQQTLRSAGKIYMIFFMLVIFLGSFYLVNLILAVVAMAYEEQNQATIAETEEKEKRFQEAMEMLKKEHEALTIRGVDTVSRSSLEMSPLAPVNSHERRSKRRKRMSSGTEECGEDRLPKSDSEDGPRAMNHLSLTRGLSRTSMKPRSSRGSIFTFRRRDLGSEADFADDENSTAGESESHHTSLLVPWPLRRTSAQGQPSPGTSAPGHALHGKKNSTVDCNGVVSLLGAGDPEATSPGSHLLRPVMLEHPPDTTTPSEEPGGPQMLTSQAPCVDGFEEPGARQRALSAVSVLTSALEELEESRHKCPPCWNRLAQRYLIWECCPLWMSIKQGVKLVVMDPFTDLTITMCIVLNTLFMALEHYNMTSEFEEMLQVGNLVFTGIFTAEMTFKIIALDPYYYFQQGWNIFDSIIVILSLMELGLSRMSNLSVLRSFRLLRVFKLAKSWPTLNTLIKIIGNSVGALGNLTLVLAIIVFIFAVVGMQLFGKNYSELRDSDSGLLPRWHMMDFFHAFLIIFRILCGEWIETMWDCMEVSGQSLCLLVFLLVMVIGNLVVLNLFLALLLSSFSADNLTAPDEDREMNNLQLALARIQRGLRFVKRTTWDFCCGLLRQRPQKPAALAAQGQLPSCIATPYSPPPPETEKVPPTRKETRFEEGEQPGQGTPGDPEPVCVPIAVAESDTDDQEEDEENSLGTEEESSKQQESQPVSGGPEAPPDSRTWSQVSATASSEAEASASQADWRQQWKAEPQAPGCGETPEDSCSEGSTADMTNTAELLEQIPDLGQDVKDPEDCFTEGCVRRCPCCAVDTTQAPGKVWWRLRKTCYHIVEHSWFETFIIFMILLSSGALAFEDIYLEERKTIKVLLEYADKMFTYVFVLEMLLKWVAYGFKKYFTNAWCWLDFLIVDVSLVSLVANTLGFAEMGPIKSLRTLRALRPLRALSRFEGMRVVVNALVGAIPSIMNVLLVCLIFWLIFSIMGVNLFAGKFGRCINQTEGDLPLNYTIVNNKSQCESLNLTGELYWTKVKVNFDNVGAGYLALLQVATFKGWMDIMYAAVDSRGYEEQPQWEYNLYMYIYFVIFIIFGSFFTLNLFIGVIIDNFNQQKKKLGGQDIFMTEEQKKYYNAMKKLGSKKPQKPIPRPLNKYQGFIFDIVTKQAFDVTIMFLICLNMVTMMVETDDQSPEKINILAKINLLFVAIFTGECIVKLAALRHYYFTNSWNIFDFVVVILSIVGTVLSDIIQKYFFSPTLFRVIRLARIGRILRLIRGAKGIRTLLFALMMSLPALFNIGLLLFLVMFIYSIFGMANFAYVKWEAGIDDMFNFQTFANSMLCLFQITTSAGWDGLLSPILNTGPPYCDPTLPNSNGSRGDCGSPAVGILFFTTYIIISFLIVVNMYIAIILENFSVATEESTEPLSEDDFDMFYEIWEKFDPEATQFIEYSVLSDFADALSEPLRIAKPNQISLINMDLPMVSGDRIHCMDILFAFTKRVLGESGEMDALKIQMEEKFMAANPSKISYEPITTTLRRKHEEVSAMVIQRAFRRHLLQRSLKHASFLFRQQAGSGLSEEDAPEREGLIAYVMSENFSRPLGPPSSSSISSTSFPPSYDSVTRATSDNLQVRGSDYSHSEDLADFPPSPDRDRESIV

For orientation: pIC50 means −log10 of the IC50, conventionally taken in molar units. On to `CC[C@@H]1NC(=O)[C@H](CC(=O)O)NC(=O)[C@@H]2CCCN2C(=O)[C@H](CCC(=O)O)NC(=O)[C@@H]2CSSC[C@@H]3NC(=O)[C@H](C(C)C)NC(=O)[C@H](CC(C)C)NC(=O)[C@H](CC(N)=O)NC(=O)[C@@H]4CCCN4C(=O)[C@H](CCCNC(=N)N)NC(=O)[C@H](CSSC[C@H](NC(=O)[C@@H](N)CC(=O)O)C(=O)N[C@@H](CC(C)C)C(=O)NCC(=O)N[C@@H](C)C(=O)N[C@@H](Cc4ccccc4)C(=O)N[C@@H](CCCNC(=N)N)C(=O)N[C@@H](CCCCN)C(=O)N2)NC(=O)[C@H](CSSC[C@@H](C(=O)N[C@@H](CCCCN)C(=O)N[C@@H](Cc2ccc(O)cc2)C(=O)N[C@H](C(=O)N[C@@H](Cc2ccccc2)C(N)=O)C(C)C)NC(=O)[C@H](Cc2c[nH]c4ccccc24)NC(=O)[C@H](CCCNC(=N)N)NC(=O)[C@H](Cc2c[nH]cn2)NC(=O)[C@H](CC(C)C)NC(=O)[C@H](CCCNC(=N)N)NC(=O)[C@H](CO)NC3=O)NC(=O)[C@H](CCCCN)NC(=O)[C@H](CC(=O)O)NC1=O` (H-DCLGAFRKCEPD[Abu]DKCCRPNLVCSRLHRWCKYVF-NH2; disulfide 2-17, 9-23, 16-30), for which the pIC50 against hNav1.5 was less than 5.00; at hNav1.7 (Nav1.7 Use IC50) it was 8.46.
The corresponding values for `CC[C@H](C)[C@@H]1NC(=O)[C@@H]2CSSC[C@@H]3NC(=O)[C@H](C(C)C)NC(=O)[C@H](CC(C)C)NC(=O)[C@H](CC(N)=O)NC(=O)[C@@H]4CCCN4C(=O)[C@H](CCCNC(=N)N)NC(=O)[C@H](CSSC[C@H](NC(=O)[C@@H](N)CC(=O)O)C(=O)N[C@@H](CC(C)C)C(=O)NCC(=O)N[C@@H](Cc4cccnc4)C(=O)N[C@@H](Cc4ccccc4)C(=O)N[C@@H](CCCNC(=N)N)C(=O)N[C@@H](CCCCN)C(=O)N2)NC(=O)[C@H](CSSC[C@@H](C(=O)N[C@@H](CCCCN)C(=O)N[C@@H](Cc2ccc(O)cc2)C(=O)N[C@H](C(=O)N[C@@H](Cc2ccccc2)C(N)=O)C(C)C)NC(=O)[C@H](Cc2c[nH]c4ccccc24)NC(=O)[C@H](CCCCN)NC(=O)[C@H](Cc2c[nH]cn2)NC(=O)[C@H]([C@@H](C)O)NC(=O)[C@H](CCCNC(=N)N)NC(=O)[C@H](CO)NC3=O)NC(=O)[C@H](CCCCN)NC(=O)[C@H](CC(=O)O)NC(=O)[C@H](CC(N)=O)NC(=O)[C@H](CC(=O)O)NC(=O)[C@@H]2CCCN2C1=O` [[3Pal5;Phe6]GpTx-1(1-34)] (H-DCLG[3Pal]FRKCIPDNDKCCRPNLVCSRTHKWCKYVF-NH2; disulfide 2-17, 9-23, 16-30) are less than 5.00 and 7.20.
On to `CC[C@H](C)[C@@H]1NC(=O)[C@@H]2CSSC[C@@H]3NC(=O)[C@H](C(C)C)NC(=O)[C@H](CC(C)C)NC(=O)[C@H](CC(N)=O)NC(=O)[C@@H]4CCCN4C(=O)[C@H](CCCNC(=N)N)NC(=O)[C@H](CSSC[C@H](NC(=O)[C@@H](N)CC(=O)O)C(=O)N[C@@H](CC(C)C)C(=O)NCC(=O)N[C@@H](Cc4ccccc4)C(=O)N[C@@H](CCSC)C(=O)N[C@@H](CCCNC(=N)N)C(=O)N[C@@H](CCCCN)C(=O)N2)NC(=O)[C@H](CSSC[C@@H](C(=O)N[C@@H](CCCCN)C(=O)N[C@@H](Cc2ccc(O)cc2)C(=O)N[C@H](C(=O)N[C@@H](Cc2ccccc2)C(N)=O)C(C)C)NC(=O)[C@H](Cc2c[nH]c4ccccc24)NC(=O)[C@H](CCCCN)NC(=O)[C@H](Cc2c[nH]cn2)NC(=O)[C@H]([C@@H](C)O)NC(=O)[C@H](CCCNC(=N)N)NC(=O)[C@H](CO)NC3=O)NC(=O)[C@H](CCCCN)NC(=O)[C@H](CC(=O)O)NC(=O)[C@H](Cc2cccc3ccccc23)NC(=O)[C@H](CC(=O)O)NC(=O)[C@@H]2CCCN2C1=O` [[1-Nal13]GpTx-1(1-34)] (H-DCLGFMRKCIPD[1Nal]DKCCRPNLVCSRTHKWCKYVF-NH2; disulfide 2-17, 9-23, 16-30), for which the pIC50 is 5.13 against hNav1.5 and 8.70 at hNav1.7 (read-out: Nav1.7 Use IC50).
Turning to `CC[C@@H]1NC(=O)[C@H](CC(=O)O)NC(=O)[C@@H]2CCCN2C(=O)[C@H]([C@@H](C)CC)NC(=O)[C@@H]2CSSC[C@@H]3NC(=O)[C@H](C(C)C)NC(=O)[C@H](CC(C)C)NC(=O)[C@H](CC(N)=O)NC(=O)[C@@H]4CCCN4C(=O)[C@H](CCCNC(=N)N)NC(=O)[C@H](CSSC[C@H](NC(=O)[C@@H](N)CC(=O)O)C(=O)N[C@@H](CC(C)C)C(=O)NCC(=O)N[C@@H](C)C(=O)N[C@@H](Cc4ccccc4)C(=O)N[C@@H](CCCNC(=N)N)C(=O)N[C@@H](CCCCN)C(=O)N2)NC(=O)[C@H](CSSC[C@@H](C(=O)N[C@@H](CCCCN)C(=O)N[C@@H](Cc2ccc(O)cc2)C(=O)N[C@H](C(=O)N[C@@H](Cc2ccccc2)C(N)=O)C(C)C)NC(=O)[C@H](Cc2c[nH]c4ccccc24)NC(=O)[C@H](CCCNC(=N)N)NC(=O)[C@H](Cc2c[nH]cn2)NC(=O)[C@H](CC(C)C)NC(=O)[C@H](CCCNC(=N)N)NC(=O)[C@H](CO)NC3=O)NC(=O)[C@H](CCCCN)NC(=O)[C@H](CC(=O)O)NC1=O` (H-DCLGAFRKCIPD[Abu]DKCCRPNLVCSRLHRWCKYVF-NH2; disulfide 2-17, 9-23, 16-30), the negative logarithm of the IC50 (pIC50) at hNav1.5 was less than 5.00; at hNav1.7 (Nav1.7 Use IC50) it was 8.33.
`CC[C@H](C)[C@@H]1NC(=O)[C@@H]2CSSC[C@@H]3NC(=O)[C@H](Cc4ccccn4)NC(=O)[C@H](CC(C)C)NC(=O)[C@H](CC(N)=O)NC(=O)[C@@H]4CCCN4C(=O)[C@H](CCCNC(=N)N)NC(=O)[C@H](CSSC[C@H](NC(=O)[C@@H](N)CC(=O)O)C(=O)N[C@@H](CC(C)C)C(=O)NCC(=O)N[C@@H](Cc4ccccc4)C(=O)N[C@@H](CCSC)C(=O)N[C@@H](CCCNC(=N)N)C(=O)N[C@@H](CCCCN)C(=O)N2)NC(=O)[C@H](CSSC[C@@H](C(=O)N[C@@H](CCCCN)C(=O)N[C@@H](Cc2ccc(O)cc2)C(=O)N[C@H](C(=O)N[C@@H](Cc2ccccc2)C(N)=O)C(C)C)NC(=O)[C@H](Cc2c[nH]c4ccccc24)NC(=O)[C@H](CCCCN)NC(=O)[C@H](Cc2c[nH]cn2)NC(=O)[C@H]([C@@H](C)O)NC(=O)[C@H](CCCNC(=N)N)NC(=O)[C@H](CO)NC3=O)NC(=O)[C@H](CCCCN)NC(=O)[C@H](CC(=O)O)NC(=O)[C@H](CC(N)=O)NC(=O)[C@H](CC(=O)O)NC(=O)[C@@H]2CCCN2C1=O` [[2PAL22]GpTx-1(1-34)] (H-DCLGFMRKCIPDNDKCCRPNL[2Pal]CSRTHKWCKYVF-NH2; disulfide 2-17, 9-23, 16-30): the pIC50 against hNav1.5 was 4.80; against hNav1.7 (Nav1.7 Use IC50), 8.15.
The corresponding values for `CC[C@H](C)[C@@H]1NC(=O)[C@@H]2CSSC[C@@H]3NC(=O)[C@H](Cc4c[nH]c5ccccc45)NC(=O)[C@H](CC(C)C)NC(=O)[C@H](CC(N)=O)NC(=O)[C@@H]4CCCN4C(=O)[C@H](CCCNC(=N)N)NC(=O)[C@H](CSSC[C@H](NC(=O)[C@@H](N)CC(=O)O)C(=O)N[C@@H](CC(C)C)C(=O)NCC(=O)N[C@@H](Cc4ccccc4)C(=O)N[C@@H](CCSC)C(=O)N[C@@H](CCCNC(=N)N)C(=O)N[C@@H](CCCCN)C(=O)N2)NC(=O)[C@H](CSSC[C@@H](C(=O)N[C@@H](CCCCN)C(=O)N[C@@H](Cc2ccc(O)cc2)C(=O)N[C@H](C(=O)N[C@@H](Cc2ccccc2)C(N)=O)C(C)C)NC(=O)[C@H](Cc2c[nH]c4ccccc24)NC(=O)[C@H](CCCCN)NC(=O)[C@H](Cc2cnc[nH]2)NC(=O)[C@H]([C@@H](C)O)NC(=O)[C@H](CCCNC(=N)N)NC(=O)[C@H](CO)NC3=O)NC(=O)[C@H](CCCCN)NC(=O)[C@H](CC(=O)O)NC(=O)[C@H](CC(N)=O)NC(=O)[C@H](CC(=O)O)NC(=O)[C@@H]2CCCN2C1=O` [[Trp22]GpTx-1(1-34)] (H-DCLGFMRKCIPDNDKCCRPNLWCSRTHKWCKYVF-NH2; disulfide 2-17, 9-23, 16-30) are 5.32 and 7.41.
The corresponding values for `CC[C@H](C)[C@@H]1NC(=O)[C@@H]2CSSC[C@@H]3NC(=O)[C@H](C(C)C)NC(=O)[C@H](CC(C)C)NC(=O)[C@H](CC(N)=O)NC(=O)[C@@H]4CCCN4C(=O)[C@H](CCCNC(=N)N)NC(=O)[C@H](CSSC[C@H](NC(=O)[C@@H](N)CC(=O)O)C(=O)N[C@@H](CC(C)C)C(=O)N[C@@H](CCCNC(=N)N)C(=O)N[C@@H](CCSC)C(=O)N[C@@H](CCSC)C(=O)N[C@@H](CCCNC(=N)N)C(=O)N[C@@H](CCCCN)C(=O)N2)NC(=O)[C@H](CSSC[C@@H](C(=O)N[C@@H](CCCCN)C(=O)N[C@@H](Cc2ccc(O)cc2)C(=O)N[C@H](C(=O)N[C@@H](Cc2ccccc2)C(N)=O)C(C)C)NC(=O)[C@H](Cc2c[nH]c4ccccc24)NC(=O)[C@H](CCCCN)NC(=O)[C@H](Cc2c[nH]cn2)NC(=O)[C@H]([C@@H](C)O)NC(=O)[C@H](CCCNC(=N)N)NC(=O)[C@H](CO)NC3=O)NC(=O)[C@H](CCCCN)NC(=O)[C@H](CC(=O)O)NC(=O)[C@H](CC(N)=O)NC(=O)[C@H](CC(=O)O)NC(=O)[C@@H]2CCCN2C1=O` [[Arg4;Met5]GpTx-1(1-34)] (H-DCLRMMRKCIPDNDKCCRPNLVCSRTHKWCKYVF-NH2; disulfide 2-17, 9-23, 16-30) are 4.88 and 7.54.
The corresponding values for `CC[C@H](C)[C@@H]1NC(=O)[C@@H]2CSSC[C@@H]3NC(=O)[C@H](C(C)C)NC(=O)[C@H](CC(C)C)NC(=O)[C@H](CC(N)=O)NC(=O)[C@@H]4CCCN4C(=O)[C@H](CCCCN)NC(=O)[C@H](CSSC[C@H](NC(=O)[C@@H](N)CC(=O)O)C(=O)N[C@@H](CC(C)C)C(=O)NCC(=O)N[C@@H](Cc4ccccc4)C(=O)N[C@@H](CCSC)C(=O)N[C@@H](CCCNC(=N)N)C(=O)N[C@@H](CCCCN)C(=O)N2)NC(=O)[C@H](CSSC[C@@H](C(=O)N[C@@H](CCCCN)C(=O)N[C@@H](Cc2ccc(O)cc2)C(=O)N[C@H](C(=O)N[C@@H](Cc2ccccc2)C(N)=O)C(C)C)NC(=O)[C@H](Cc2c[nH]c4ccccc24)NC(=O)[C@H](CCCCN)NC(=O)[C@H](Cc2cnc[nH]2)NC(=O)[C@H]([C@@H](C)O)NC(=O)[C@H](CCCNC(=N)N)NC(=O)[C@H](CO)NC3=O)NC(=O)[C@H](CCCCN)NC(=O)[C@H](CC(=O)O)NC(=O)[C@H](CC(N)=O)NC(=O)[C@H](CC(=O)O)NC(=O)[C@@H]2CCCN2C1=O` [[Lys18]GpTx-1(1-34)] (H-DCLGFMRKCIPDNDKCCKPNLVCSRTHKWCKYVF-NH2; disulfide 2-17, 9-23, 16-30) are 4.79 and 8.70.
